Measurements published in patent publication US10093630B2, “Pyrazole compounds and methods of making and using same” (ABIDE THERAPEUTICS, INC., priority 2014, dated 2018).

Experiments:
Test in all cases: In vitro competitive activity-based protein profiling (gel-based, FP-Rh or HT-01 probe)
Type in all cases: biochemical
[1] = target: T1, ABHD6 (Mus musculus, UniProt Q8R2Y0); settings: for inhibition at 10 µM: 10 μM inhibitor, read-out: % Inhibition at 10 μM, C = ABHD6; for inhibition at 1 µM: 1 μM inhibitor, read-out: % Inhibition at 1 μM, C = ABHD6
T1 construct: Proteomes (mouse brain membrane fraction or cell lysates); from tissue; host or cells: mouse brain membrane fraction (or cell lysates, not specified)
T1 sequence (Q8R2Y0 1-336): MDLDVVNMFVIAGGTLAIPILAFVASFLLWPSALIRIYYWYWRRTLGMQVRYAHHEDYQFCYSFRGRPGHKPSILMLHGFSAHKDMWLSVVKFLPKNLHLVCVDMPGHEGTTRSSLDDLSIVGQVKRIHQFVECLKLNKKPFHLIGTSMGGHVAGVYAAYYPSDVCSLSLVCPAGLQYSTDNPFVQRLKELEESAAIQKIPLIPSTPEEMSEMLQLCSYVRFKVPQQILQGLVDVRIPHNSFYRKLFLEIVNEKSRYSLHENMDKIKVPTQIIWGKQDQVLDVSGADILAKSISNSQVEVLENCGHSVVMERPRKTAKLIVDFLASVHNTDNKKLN
Protocol: (§1) In Vitro Competitive Activity-Based Protein Profiling.
(§2) Proteomes (mouse brain membrane fraction or cell lysates) (50 μL, 1.0 mg/mL total protein concentration) were preincubated with varying concentrations of inhibitors at 37° C. After 30 min, FP-Rh or HT-01 ([…], 50 μM in DMSO) was added and the mixture was incubated for another 30 min at 37° C. Reactions were quenched with SDS loading buffer (15 μL—4×) and run on SDS-PAGE. Following gel imaging, serine hydrolase activity was determined by measuring fluorescent intensity of gel bands corresponding to MAGL, ABHD6, FAAH, and PLA2G7 using ImageJ 1.43u software.

[2] = target: T2, FAAH (Mus musculus, UniProt O08914); settings: for inhibition at 10 µM: 10 μM inhibitor, read-out: % Inhibition at 10 μM, B = FAAH; for inhibition at 1 µM: 1 μM inhibitor, read-out: % Inhibition at 1 μM, B = FAAH
T2 construct: Proteomes (mouse brain membrane fraction or cell lysates); from tissue; host or cells: mouse brain membrane fraction (or cell lysates, not specified)
T2 sequence (O08914 1-579): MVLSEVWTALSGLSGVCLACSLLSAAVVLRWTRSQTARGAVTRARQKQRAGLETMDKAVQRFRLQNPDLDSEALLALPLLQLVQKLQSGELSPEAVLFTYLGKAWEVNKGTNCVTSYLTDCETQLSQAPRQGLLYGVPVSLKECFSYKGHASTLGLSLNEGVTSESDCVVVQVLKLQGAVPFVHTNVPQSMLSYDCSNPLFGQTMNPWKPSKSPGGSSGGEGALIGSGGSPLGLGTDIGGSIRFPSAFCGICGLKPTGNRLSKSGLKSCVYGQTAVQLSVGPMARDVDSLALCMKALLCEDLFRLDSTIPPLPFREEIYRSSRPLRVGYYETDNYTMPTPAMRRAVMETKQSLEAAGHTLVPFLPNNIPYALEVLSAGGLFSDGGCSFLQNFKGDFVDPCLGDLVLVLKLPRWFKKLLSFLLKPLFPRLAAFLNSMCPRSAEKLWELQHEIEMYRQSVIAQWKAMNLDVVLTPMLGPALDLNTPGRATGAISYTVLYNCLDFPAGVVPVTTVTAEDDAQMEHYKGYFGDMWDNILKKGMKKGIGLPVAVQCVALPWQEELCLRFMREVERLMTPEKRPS
Protocol: as §1, §2

[3] = target: T3, PLA2G7 (Mus musculus, UniProt Q60963); settings: for inhibition at 10 µM: 10 μM inhibitor, read-out: % Inhibition at 10 μM, D = PLA2G7; for inhibition at 1 µM: 1 μM inhibitor, read-out: % Inhibition at 1 μM, D = PLA2G7
T3 construct: Proteomes (mouse brain membrane fraction or cell lysates); from tissue; host or cells: mouse brain membrane fraction (or cell lysates, not specified)
T3 sequence (Q60963 22-440): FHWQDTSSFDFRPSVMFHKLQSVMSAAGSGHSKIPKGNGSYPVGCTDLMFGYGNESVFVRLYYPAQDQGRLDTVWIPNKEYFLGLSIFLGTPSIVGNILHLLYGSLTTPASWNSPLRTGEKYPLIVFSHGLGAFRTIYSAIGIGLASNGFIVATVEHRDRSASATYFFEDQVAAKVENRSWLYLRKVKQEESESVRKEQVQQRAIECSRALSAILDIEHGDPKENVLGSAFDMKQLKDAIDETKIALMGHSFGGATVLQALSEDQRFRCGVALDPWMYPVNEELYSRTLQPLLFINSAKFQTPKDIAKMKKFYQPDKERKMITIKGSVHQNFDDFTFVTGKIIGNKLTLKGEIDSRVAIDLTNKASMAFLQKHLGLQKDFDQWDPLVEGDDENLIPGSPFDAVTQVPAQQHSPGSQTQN
Protocol: as §1, §2

[4] = target: T4, MAGL (Mus musculus, UniProt O35678); settings: for inhibition at 10 µM: 10 μM inhibitor; for inhibition at 1 µM: 1 μM inhibitor
T4 construct: Proteomes (mouse brain membrane fraction or cell lysates); from tissue; host or cells: mouse brain membrane fraction (or cell lysates, not specified)
T4 sequence (O35678 1-303): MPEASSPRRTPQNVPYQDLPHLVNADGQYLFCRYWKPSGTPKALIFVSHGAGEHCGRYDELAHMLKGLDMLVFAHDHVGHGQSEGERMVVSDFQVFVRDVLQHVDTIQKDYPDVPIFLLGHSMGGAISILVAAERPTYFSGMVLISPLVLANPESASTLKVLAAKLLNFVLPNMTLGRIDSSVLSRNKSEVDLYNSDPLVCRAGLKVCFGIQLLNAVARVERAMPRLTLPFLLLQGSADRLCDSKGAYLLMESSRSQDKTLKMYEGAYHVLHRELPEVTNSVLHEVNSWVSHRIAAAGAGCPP
Protocol: as §1, §2

inhibition at 10 µM [1]	inhibition at 10 µM [2]	inhibition at 10 µM [3]	inhibition at 10 µM [4]	inhibition at 1 µM [1]	inhibition at 1 µM [2]	inhibition at 1 µM [3]	inhibition at 1 µM [4]	IC50 ([1]; mouse brain membrane fraction or cell lysates, 30 min preincubation at 37° C., read-out: Mouse (IC50 value, nM) ABHD6)	SMILES
25 to 75%	> 75%	< 25%	25 to 75%	< 25%	25 to 75%	< 25%	< 25%	–	N#Cc1cnn(C(=O)NCCCCc2ccccc2)c1 [Example 36, 4-Cyano-N-(4-phenylbutyl)-1H-pyrazole-1-carboxamide]
< 25%	> 75%	< 25%	25 to 75%	< 25%	< 25%	< 25%	< 25%	–	N#Cc1cnn(C(=O)NCCCCCc2ccccc2)c1 [Example 39, 4-Cyano-N-(5-phenylpentyl)-1H-pyrazole-1-carboxamide]
< 25%	< 25%	< 25%	> 75%	< 25%	< 25%	< 25%	< 25%	–	O=C(Nc1ccc2ccccc2c1)n1cccn1 [Example 40, N-(Naphthalen-2-yl)-1H-pyrazole-1-carboxamide]
< 25%	< 25%	< 25%	> 75%	< 25%	< 25%	< 25%	< 25%	–	Cc1cnn(C(=O)Nc2ccc3ccccc3c2)c1 [Example 41, 4-Methyl-N-(naphthalen-2-yl)-1H-pyrazole-1-carboxamide]
< 25%	< 25%	< 25%	> 75%	< 25%	< 25%	< 25%	< 25%	–	N#Cc1cnn(C(=O)Nc2ccc3ccccc3c2)c1 [Example 42, 4-Cyano-N-(naphthalen-2-yl)-1H-pyrazole-1-carboxamide]
< 25%	> 75%	< 25%	25 to 75%	< 25%	< 25%	< 25%	< 25%	–	O=C(NCc1ccc2ccccc2c1)n1cccn1 [Example 43, N-(Naphthalen-2-ylmethyl)-1H-pyrazole-1-carboxamide]
< 25%	> 75%	< 25%	25 to 75%	< 25%	< 25%	< 25%	< 25%	–	N#Cc1cnn(C(=O)NCc2ccc3ccccc3c2)c1 [Example 45, 4-Cyano-N-(naphthalen-2-ylmethyl)-1H-pyrazole-1-carboxamide]

The remaining lines, values behind:

SMILES	inhibition at 10 µM [1]	inhibition at 10 µM [2]	inhibition at 10 µM [3]	inhibition at 10 µM [4]	inhibition at 1 µM [1]	inhibition at 1 µM [2]	inhibition at 1 µM [3]	inhibition at 1 µM [4]	IC50 ([1]; mouse brain membrane fraction or cell lysates, 30 min preincubation at 37° C., read-out: Mouse (IC50 value, nM) ABHD6)
O=C(NCCCCc1ccccc1)n1cccn1 [Example 34, N-(4-Phenylbutyl)-1H-pyrazole-1-carboxamide]	< 25%	< 25%	< 25%	< 25%	–	–	–	–	–
Cc1cnn(C(=O)NCCCCc2ccccc2)c1 [Example 35, 4-Methyl-N-(4-phenylbutyl)-1H-pyrazole-1-carboxamide]	< 25%	< 25%	< 25%	< 25%	–	–	–	–	–
O=C(NCCCCCc1ccccc1)n1cccn1 [Example 37, N-(5-phenylpentyl)-1H-pyrazole-1-carboxamide]	< 25%	< 25%	< 25%	< 25%	–	–	–	–	–
Cc1cnn(C(=O)NCCCCCc2ccccc2)c1 [Example 38, 4-Methyl-N-(5-phenylpentyl)-1H-pyrazole-1-carboxamide]	< 25%	< 25%	< 25%	< 25%	–	–	–	–	–
O=C(c1cnn(C(=O)N2CCN(Cc3ccc4c(c3)OCO4)CC2)c1)N1CCOCC1 [Example 51, (4-(Benzo[d][1,3]dioxol-5-ylmethyl)piperazin-1-yl)(4-(morpholine-4-carbonyl)-1H-pyrazol-1-yl)methanone]	> 75%	> 75%	> 75%	> 75%	> 75%	< 25%	< 25%	< 25%	100 to 1000 nM
O=C(c1cnn(C(=O)N2CCN(Cc3ccncc3)CC2)c1)N1CCOCC1 [Example 52, (4-(Morpholine-4-carbonyl)-1H-pyrazol-1-yl)(4-(pyridin-4-ylmethyl)piperazin-1-yl)methanone]	> 75%	< 25%	> 75%	< 25%	25 to 75%	–	< 25%	–	–
O=C(c1cnn(C(=O)N2CCN(Cc3cccnc3)CC2)c1)N1CCOCC1 [Example 53, (4-(Morpholine-4-carbonyl)-1H-pyrazol-1-yl)(4-(pyridin-3-ylmethyl)piperazin-1-yl)methanone]	> 75%	< 25%	> 75%	25 to 75%	< 25%	–	< 25%	–	–
O=C(c1cnn(C(=O)N2CCN(Cc3ccncn3)CC2)c1)N1CCOCC1 [Example 54, (4-(Morpholine-4-carbonyl)-1H-pyrazol-1-yl)(4-(pyrimidin-4-ylmethyl)piperazin-1-yl)methanone]	25 to 75%	< 25%	> 75%	25 to 75%	< 25%	–	< 25%	–	–
O=C(c1cnn(C(=O)N2CCN(Cc3nccs3)CC2)c1)N1CCOCC1 [Example 55, (4-(Morpholine-4-carbonyl)-1H-pyrazol-1-yl)(4-(thiazol-2-ylmethyl)piperazin-1-yl)methanone]	> 75%	25 to 75%	> 75%	< 25%	25 to 75%	–	< 25%	–	–
O=C(c1cnn(C(=O)N2CCN(Cc3cncnc3)CC2)c1)N1CCOCC1 [Example 56, (4-(Morpholine-4-carbonyl)-1H-pyrazol-1-yl)(4-(pyrimidin-5-ylmethyl)piperazin-1-yl)methanone]	> 75%	< 25%	> 75%	< 25%	< 25%	–	< 25%	–	–
